Experimental findings from patent US20230357139A1, “SMALL MOLECULE INHIBITORS OF BACTERIAL TOXINS” (Artizan Biosciences, Inc., priority 2020, published 2023) are described below.

One test has as its target Gelatinase E (GelE) (Enterococcus faecalis (strain ATCC 700802 / V583), UniProt Q833V7). Nature of the test: Gelatinase E activity assay (FRET peptide substrate). As to conditions: Table 11. Format: biochemical. As for the experimental part: Gelatinase E (Gel E) was purified from bacterial culture supernatant from E. faecalis. E. faecalis was cultured aerobically in Todd Hewitt Broth overnight at 37° C. Nucleic acid was precipitated with 0.9% protamine solution, followed by protein precipitation with ammonium sulfate. Resuspended protein pellet was further subjected to purification using FPLC (phenyl Sepharose column). Fractions with gelatinase activity as determined by casein agar assay were pooled and further concentrated.
Different concentrations of test compound were incubated with purified GelE and FRET-based peptide substrate (390 MMP FRET Substrate 1; Anaspec AS-27077) in assay buffer at room temperature for 30 minutes. The fluorescence signal was determined by a plate reader.

A further test concerns recombinant BFT (rBFT). The experiment in a line: NFF-3 cleavage assay. Format: biochemical, B. fragilis. As to conditions: rBFT pre-incubated with compound 30 minutes at 37° C., then NFF-3 for 24 hours; read-out: NFF3 IC50. How it is done: A NFF-3 cleavage assay was used to test activity of recombinant BFT, before or after addition of various inhibitors. The NFF-3 cleavage assay was previously described by Goulas et al., PNAS, 2011, 108(5) 1856-1861, which is incorporated by reference herein in its entirety.
Initially, recombinant BFT (rBFT) (0.25, 0.5, 1, 2, 4, 8, or 16 μg/mL) was incubated at 37° C. with the fluorogenic substrate NFF-3 (Cayman Chemical) at a concentration of 2.5 μM, 5 μM, or 10 μM. After 18 hours, fluorescence was measured in a microplate fluorimeter.
Next, rBFT was pre-incubated with one or more test compounds at different concentrations for 30 minutes at 37° C. The rBFT-compound mixture was then added to NFF-3 and incubated for 24 hours at 37° C. Fluorescence was then measured in a microplate fluorimeter.

Sequence of Gelatinase E (GelE) (Q833V7 193-510 limits assumed): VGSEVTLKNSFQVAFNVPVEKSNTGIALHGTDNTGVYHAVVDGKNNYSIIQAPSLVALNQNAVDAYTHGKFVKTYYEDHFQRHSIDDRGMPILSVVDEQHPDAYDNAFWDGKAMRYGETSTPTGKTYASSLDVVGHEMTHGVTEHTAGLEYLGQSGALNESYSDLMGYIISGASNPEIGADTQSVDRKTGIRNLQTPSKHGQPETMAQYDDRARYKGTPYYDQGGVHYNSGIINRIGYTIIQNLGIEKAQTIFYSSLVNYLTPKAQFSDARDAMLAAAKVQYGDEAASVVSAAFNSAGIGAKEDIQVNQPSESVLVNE

Molecule `CC(C)CN(CC(=O)NO)S(=O)(=O)c1ccc(Oc2ccccc2)cc1` [AA] gave a concentration for half-maximal inhibition (IC50) at Gelatinase E (GelE) of 1.69 µM. As to `CC(C)CN(CC(=O)NO)S(=O)(=O)c1ccc(OCCCF)cc1` [AB], it took 2.4 µM to reach half-maximal inhibition on Gelatinase E (GelE) (IC50). Same read-out and setting: to `CC(C)CN(CC(=O)NO)S(=O)(=O)c1ccc(OCC(=O)NCc2ccsc2)cc1` [AC] belongs 0.139 µM; to `Cc1ccc(CNC(=O)COc2ccc(S(=O)(=O)N(CC(=O)NO)CC(C)C)cc2)cc1` [AD], 0.155 µM. Same read-out and setting: to `COc1ccc(CNC(=O)COc2ccc(S(=O)(=O)N(CC(=O)NO)CC(C)C)cc2)cc1` [AE] belongs 0.156 µM; to `CC(C)CN(CC(=O)NO)S(=O)(=O)c1ccc(OCC(=O)NCc2cccc(C(F)(F)F)c2)cc1` [AF], 0.113 µM. On the same count and under the same terms, the result for `CC(C)CN(CC(=O)NO)S(=O)(=O)c1ccc(OCC(=O)NCc2cccc(Cl)c2)cc1` [AG, N-(3-chlorobenzyl)-2-(4-(N-(2-(hydroxyamino)-2-oxoethyl)-N-isobutylsulfamoyl)phenoxy)acetamide] reads 0.103 µM; that for `CC(C)CN(CC(=O)NO)S(=O)(=O)c1ccc(OCC(=O)NCc2ccc(C(F)(F)F)cc2)cc1` [AH], 0.238 µM; that for `CC(C)CN(CC(=O)NO)S(=O)(=O)c1ccc(OCC(=O)NCc2ccc(Cl)cc2)cc1` [AI], 0.164 µM.

`CC(C)CN(CC(=O)NO)S(=O)(=O)c1ccc(OCC(=O)NCc2ccc(F)cc2)cc1` [AJ] had an IC50 against Gelatinase E (GelE) of 0.313 µM. On the same count and under the same terms, to `Cc1cccc(CNC(=O)COc2ccc(S(=O)(=O)N(CC(=O)NO)CC(C)C)cc2)c1` [AK] belongs greater than 10 µM; to `Cc1ccccc1CNC(=O)COc1ccc(S(=O)(=O)N(CC(=O)NO)CC(C)C)cc1` [AL], 0.218 µM. The same measure, in the same setting: the result for `CC(C)CN(CC(=O)NO)S(=O)(=O)c1ccc(OCC(=O)NCc2cccc(F)c2)cc1` [AN] reads 0.158 µM. Molecule `CC(C)CN(CC(=O)NO)S(=O)(=O)c1ccc(OCC(=O)NCc2cc(F)cc(F)c2)cc1` [AO] gave an IC50 against Gelatinase E (GelE) greater than 10 µM. Turning to `CC(C)CN(CC(=O)NO)S(=O)(=O)c1ccc(OCC(=O)NCc2ccccn2)cc1` [AP], the 50% inhibitory concentration (IC50) against Gelatinase E (GelE) was 0.177 µM. With `CSc1cccc(CNC(=O)COc2ccc(S(=O)(=O)N(CC(=O)NO)CC(C)C)cc2)c1` [AQ], it took 0.119 µM to reach half-maximal inhibition on Gelatinase E (GelE) (IC50). Still for that read-out and setting: to `CC(C)CN(CC(=O)NO)S(=O)(=O)c1ccc(OCC(=O)NC(C)c2ccccc2)cc1` (stereo not drawn) [AR] belongs 0.237 µM; to `CC(C)CN(CC(=O)NO)S(=O)(=O)c1ccc(OCC(=O)NCc2ccccc2)cc1` [B], 0.13 µM. With `CC(C)C[C@H](C(=O)NN)N(Cc1cccnc1)S(=O)(=O)c1ccc(O)cc1` [Example 34], in the test on recombinant BFT (rBFT), the IC50 was 28 µM. Same read-out and setting: to `CCC(C)[C@H](C(=O)NO)N(Cc1cccnc1)S(=O)(=O)c1ccc(O)cc1` (stereo partly drawn) [Example 36] belongs 0.24 µM; to `CC(C)C[C@H](C(=O)NO)N(Cc1cccnc1)S(=O)(=O)c1ccc(C(C)O)cc1` (stereo partly drawn) [Example 37], 49.7 µM; to `CC(=O)c1ccc(S(=O)(=O)N(Cc2cccnc2)[C@H](CC(C)C)C(=O)NO)cc1` [Example 38], 6.13 µM. On the same count and under the same terms, the result for `CC(C)C[C@H](C(=O)NO)N(Cc1cccnc1)S(=O)(=O)c1cccc(C(N)=O)c1` [Example 39] reads 79.3 µM; that for `CC(C)C[C@H](C(=O)NO)N(Cc1cccnc1)S(=O)(=O)c1ccc(NS(C)(=O)=O)cc1` [Example 41, (R)—N-hydroxy-4-methyl-2-((4-(methylsulfonamido)-N-(pyridin-3-ylmethyl)phenyl)sulfonamido) pentanamide], 24.1 µM.

In the case of `CC(C)C[C@H](C(=O)NO)N(Cc1cccnc1)S(=O)(=O)c1ccc(N)cc1` [Example 43], the IC50 with recombinant BFT (rBFT) turned out to be 2.99 µM. The same measure, in the same setting: to `CCCC[C@H](C(=O)NO)N(Cc1cccnc1)S(=O)(=O)c1ccc(O)cc1` [Example 44] belongs 0.13 µM. For the molecule `CC(C)C[C@H](C(=O)NO)N(Cc1cccnc1)S(=O)(=O)c1ccc(C(N)=O)cc1` [Example 46], in the test on recombinant BFT (rBFT), the 50% inhibitory concentration (IC50) was determined as 6.1 µM. The same measure, in the same setting: to `CC(C)C[C@H](C(=O)NO)N(Cc1cccnc1)S(=O)(=O)c1ccc(C#N)cc1` [Example 47] belongs 6.09 µM. On the same count and under the same terms, to `O=C(NO)[C@@H](CC(F)F)N(Cc1cccnc1)S(=O)(=O)c1ccc(O)cc1` [Example 48] belongs 14.6 µM.

On to `CC(C)C[C@H](C(=O)NO)N(Cc1cccnc1)S(=O)(=O)c1ccc(NC=O)cc1` [Example 49, (R)-2-((4-formamido-N-(pyridin-3-ylmethyl)phenyl)-sulfonamido)-N-hydroxy-4-methyl pentanamide], for which the IC50 with recombinant BFT (rBFT) is 8.2 µM. The same measure, in the same setting: to `O=C(NO)[C@@H](CO)N(Cc1cccnc1)S(=O)(=O)c1ccc(O)cc1` [Example 50] belongs 0.51 µM; to `CC(C)C[C@H](C(=O)NO)N(Cc1cccnc1)S(=O)(=O)c1ccc(-c2nnn[nH]2)cc1` [Example 51], greater than 200 µM. The same measure, in the same setting: to `CC(C)C[C@H](C(=O)NO)N(Cc1cccnc1)S(=O)(=O)c1ccc(C(=N)N)cc1` [Example 52] belongs 27.9 µM; to `COC[C@H](C(=O)NO)N(Cc1cccnc1)S(=O)(=O)c1ccc(O)cc1` [Example 53], 0.57 µM; to `COCC[C@H](C(=O)NO)N(Cc1cccnc1)S(=O)(=O)c1ccc(O)cc1` [Example 54], 0.4 µM.

With `CC(C)CN(CC(=O)NO)S(=O)(=O)c1ccc(O)cc1` [Example 56], in the test on recombinant BFT (rBFT), the IC50 was 4.62 µM.

`CC[C@H](C(=O)NO)N(Cc1cccnc1)S(=O)(=O)c1ccc(O)cc1F` [Example 57]: the IC50 in the test on recombinant BFT (rBFT) is 0.196 µM. The same measure, in the same setting: to `CC[C@H](C(=O)NO)N(Cc1cccnc1)S(=O)(=O)c1ccc(O)c(F)c1` [Example 58] belongs 0.51 µM. Still for that read-out and setting: to `CC[C@H](C(=O)NO)N(Cc1cccnc1)S(=O)(=O)c1ccc(O)c(Cl)c1` [Example 59] belongs 4.22 µM; to `COc1ccc(S(=O)(=O)N(Cc2cccnc2)[C@H](C(=O)NO)C(C)C)cc1` [Example 64], 8.28 µM; to `COc1ccc(S(=O)(=O)N(Cc2ccccc2)[C@H](C(=O)NO)C(C)C)cc1F` [Example 65], 28.5 µM. On the same count and under the same terms, to `O=C(NO)[C@@H](Cc1cocn1)N(Cc1cccnc1)S(=O)(=O)c1ccc(O)cc1` [Example 67] belongs 4.25 µM; to `CC(C)[C@@H](C(=O)NO)N(Cc1ccccc1)S(=O)(=O)c1ccc(O)c(F)c1` [Example 68], 50.1 µM; to `CC(C)[C@@H](C(=O)NO)N(Cc1ccccc1)S(=O)(=O)c1cccc(C(F)(F)F)c1` [Example 69], 691 µM. Turning to `CC[C@H](C(=O)NO)N(Cc1cccnc1)S(=O)(=O)CCNC(=O)CSC` [Example 70], the IC50 with recombinant BFT (rBFT) is 164 µM.

For `CC(C)[C@@H](C(=O)NO)N(Cc1ccccc1)S(=O)(=O)c1c(F)c(F)c(F)c(F)c1F` [Example 72], in the test with recombinant BFT (rBFT), the IC50 was 637 µM. In the case of `COc1ccc(S(=O)(=O)N(Cc2cccnc2)CC(O)CSC(C)=O)cc1` (stereo not drawn) [Example 75], the IC50 in the test with recombinant BFT (rBFT) was greater than 100 µM. The same measure, in the same setting: to `CC(C)[C@H](C(=O)NO)N(Cc1cccnc1)S(=O)(=O)c1ccsc1` [Example 76] belongs 9.93 µM; to `O=C(NO)[C@@H](Cc1cccs1)N(Cc1ccc(OC(F)(F)F)cc1)S(=O)(=O)c1ccc(O)cc1` [Example 77], 0.15 µM; to `CCC[C@@H](C(=O)NO)N(CCc1ccccn1)S(=O)(=O)c1ccc(O)cc1` [Example 78], 0.216 µM.

In the case of `O=C(NO)[C@@H](Cc1cccs1)N(Cc1ccc(Cl)cc1)S(=O)(=O)c1ccc(O)cc1` [Example 80], the IC50 with recombinant BFT (rBFT) was found to be 0.29 µM. For `CCOc1ccc(CN([C@H](Cc2cccs2)C(=O)NO)S(=O)(=O)c2ccc(O)cc2)cc1` [Example 81], in the test on recombinant BFT (rBFT), the IC50 was 0.556 µM. Still for that read-out and setting: the result for `O=C(NO)[C@@H](Cc1cccs1)N(Cc1cccc(Cl)c1)S(=O)(=O)c1ccc(O)cc1` [Example 83] reads 0.53 µM; that for `Cc1cccc(CN([C@H](Cc2cccs2)C(=O)NO)S(=O)(=O)c2ccc(O)cc2)c1` [Example 84], 0.491 µM.

For the molecule `COc1cccc(CN([C@H](Cc2cccs2)C(=O)NO)S(=O)(=O)c2ccc(O)cc2)c1` [Example 89], the IC50 in the test on recombinant BFT (rBFT) is 0.185 µM. Still for that read-out and setting: to `Cc1ccc(CN([C@H](Cc2cccs2)C(=O)NO)S(=O)(=O)c2ccc(O)cc2)cc1` [Example 90] belongs 0.236 µM. Same read-out and setting: to `CSCC[C@H](C(=O)NO)N(CCc1ccccc1)S(=O)(=O)c1ccc(O)cc1` [Example 92] belongs 0.099 µM; to `COc1ccc(C(C(=O)NO)N(Cc2ccc3[nH]ccc3c2)S(=O)(=O)c2ccc(O)cc2)cc1` (stereo not drawn) [Example 93], 0.117 µM. On the same count and under the same terms, to `O=C(NO)[C@@H](Cc1cccs1)N(Cc1ccc(OC(F)F)cc1)S(=O)(=O)c1ccc(O)cc1` [Example 98] belongs 1.4 µM; to `O=C(NO)[C@@H](Cc1cccs1)N(Cc1ccc(OCCF)cc1)S(=O)(=O)c1ccc(O)cc1` [Example 100], 0.15 µM; to `C[C@H](C(=O)NO)N(CCc1ccccc1)S(=O)(=O)c1ccc(O)cc1` [Example 105], 0.09 µM. Take `CCC[C@H](C(=O)NO)N(CCc1ccc2[nH]ccc2c1)S(=O)(=O)c1ccc(O)cc1` [Example 112]: the half-inhibitory concentration (IC50) in the test with recombinant BFT (rBFT) was greater than 10 µM.

With `C=CCOc1ccc(S(=O)(=O)N(CC(=O)NO)CC(C)C)cc1` [R], the IC50 on Gelatinase E (GelE) is 2.42 µM.
